For this data set the following is noted: 101.33 kPa, Liquid, Vibrating tube method.

Structures are written as SMILES. ± gives the expanded uncertainty stated by the source.

In general, mass density refers to mass per unit of volume.

In the case of `CC(CC(C)(C)C)CP(=O)([O-])CC(C)CC(C)(C)C.CCCCCCCCCCCCCC[P+](CCCCCC)(CCCCCC)CCCCCC`, the mass density stood at 894 ± 11 kg/m3 (293.15 K); 890.8 ± 11 kg/m3 (298.15 K); 887.7 ± 11 kg/m3 (303.15 K); 884.6 ± 11 kg/m3 (308.15 K); 881.5 ± 11 kg/m3 (313.15 K); 878.4 ± 11 kg/m3 (318.15 K). Further, the mass density (323.15 K) is given as 875.3 ± 11 kg/m3 and the mass density (328.15 K) came out at 872.3 ± 11 kg/m3.
On to `CC(=O)[O-].CCn1cc[n+](C)c1` [1-ethyl-3-methylimidazolium acetate], for which the mass density stood at 1101.5 ± 12 kg/m3 (293.15 K); 1098.3 ± 12 kg/m3 (298.15 K); 1095.1 ± 12 kg/m3 (303.15 K); 1092 ± 12 kg/m3 (308.15 K); 1088.9 ± 12 kg/m3 (313.15 K); 1085.8 ± 12 kg/m3 (318.15 K). For the same compound, the mass density (323.15 K) amounted to 1082.8 ± 12 kg/m3 and the mass density (328.15 K) was 1079.7 ± 12 kg/m3.
As for `CCOS(=O)(=O)[O-].CCn1cc[n+](C)c1` [1-ethyl-3-methylimidazolium ethyl sulfate], the mass density by setting is: (293.15 K) 1236.7 ± 13 kg/m3; (298.15 K) 1233.2 ± 12 kg/m3; (303.15 K) 1229.8 ± 12 kg/m3; (308.15 K) 1226.3 ± 12 kg/m3; (313.15 K) 1222.9 ± 12 kg/m3; (318.15 K) 1219.5 ± 12 kg/m3. Moreover, the mass density reads like this: (323.15 K) 1216.2 ± 12 kg/m3; (328.15 K) 1212.8 ± 12 kg/m3.
Regarding `CCn1cc[n+](C)c1.CS(=O)(=O)[O-]` [1-ethyl-3-methylimidazolium methanesulfonate], the mass density by setting is: (293.15 K) 1244.4 ± 13 kg/m3; (298.15 K) 1240.9 ± 13 kg/m3; (303.15 K) 1237.4 ± 13 kg/m3; (308.15 K) 1233.9 ± 12 kg/m3; (313.15 K) 1230.5 ± 12 kg/m3; (318.15 K) 1227 ± 12 kg/m3. Moreover, the mass density by setting is: (323.15 K) 1223.7 ± 12 kg/m3; (328.15 K) 1220.3 ± 12 kg/m3.
For `CCn1cc[n+](C)c1.N#C[S-]` [1-ethyl-3-methylimidazolium thiocyanate], the mass density reads like this: (293.15 K) 1119.2 ± 12 kg/m3; (298.15 K) 1116.1 ± 12 kg/m3; (303.15 K) 1113 ± 12 kg/m3; (308.15 K) 1109.9 ± 12 kg/m3; (313.15 K) 1106.9 ± 12 kg/m3; (318.15 K) 1103.8 ± 12 kg/m3. Moreover, the mass density by setting is: (323.15 K) 1100.8 ± 12 kg/m3; (328.15 K) 1097.8 ± 12 kg/m3.
For the compound `COS(=O)(=O)[O-].C[N+](CCO)(CCO)CCO` [tris(2-hydroxyethyl) methylammonium methylsulfate], the mass density reads like this: (293.15 K) 1347.2 ± 14 kg/m3; (298.15 K) 1344.3 ± 14 kg/m3; (303.15 K) 1341.4 ± 13 kg/m3; (308.15 K) 1338.5 ± 13 kg/m3; (313.15 K) 1335.7 ± 13 kg/m3; (318.15 K) 1332.9 ± 13 kg/m3. In addition, the mass density is, setting by setting: (323.15 K) 1330.2 ± 13 kg/m3; (328.15 K) 1327.4 ± 13 kg/m3.
